pIC50: −log10 of the molar value. Several values for one entry are separate records, joined by “and”; a condition that tells them apart may be missing. Identical values can stand only once. Entries after “also recorded” stand apart in the source; their conditions may differ. Like-named read-outs stand apart in the source and are kept apart here.
Legend:
[1] = test system: SIK; test: Nanosyn kinase profiling; assay type: biochemical, human
Method: (§1) Percentage inhibition was determined for each kinase at both 0.1 µM and 1 µM inhibitor concentration (supplemental Table S2). […]. […]. When visualized on a kinase phylogenetic tree, these were primarily clustered within the receptor tyrosine kinases (TKs) as well as the calmodulin-dependent kinases (CAMKs) (Figure 2C).
(§2) Inhibitor selectivity profiling against 200 human kinases at 0.1 and 1 µM inhibitor concentration was performed by Nanosyn (www.nanosyn.com).

[2] = test system: panel of 200 human kinases; test: Kinome-wide selectivity, number of kinases inhibited; assay type: biochemical; settings: 1 µM inhibitor; 200 kinases
Method: as §1, §2

[3] = test system: Activin A-induced P-Smad2 in HEK293 cells; test: Activin A-induced P-Smad2, Western blot; assay type: cell-based; settings: for inhibition of Smad2 phosphorylation: 0.5 µM, Activin A; for inhibition of Activin A-induced P-Smad2: qualitative
Method: (§3) C2C12 and HEK293 cells were grown in DMEM supplemented with 10% FCS (PAA) and seeded at a density of 1 x 10^5 cells per well in 6-well plates. The next day the cells were starved in DMEM containing 1% FCS for 5 hours. Inhibitors were added at the indicated concentrations for 30 minutes followed by 10 ng/mL BMP4 (Peprotech), 100 ng/mL BMP6 (Peprotech), 100 ng/mL Activin A (Peprotech) or 2 ng/mL TGF-β1 (Cell Signaling) for 1 hour. Cells were washed in PBS and lysed on ice for 30 minutes in lysis buffer (20 mM Tris-HCl pH 7.5, 150 mM NaCl, 1% Triton X-100, 25 mM NaF, 25 mM Na β-glycerophosphate, 2 mM Na3VO4) containing protease inhibitors (Roche). Protein concentration in the clarified lysate was determined by Bradford Assay (Pierce) and 15 µg run on 4–12% Bis-Tris gel (Biorad). The protein was transferred onto nitrocellulose membrane (GE Healthcare) and probed with the relevant antibody at 4°C overnight (Cell Signaling: anti-Smad 1 (#9743), anti-P-Smad 1/5/8 (#9511), anti-Smad 2 (#5339), anti-P-Smad 2 (#3101). After subsequent incubation with HRP-conjugated anti-rabbit antibody, protein bands were detected using ECL (Pierce) and an LAS4000 image reader. Cells were purchased originally from the European Collection of Cell Cultures (ECACC) available through Sigma.

[4] = test system: Tg(fli1a:eGFP) zebrafish embryos; test: Intersomitic vessel (ISV) formation in zebrafish embryos; assay type: in vivo; settings: treated from 12 hpf, scored at 48 hpf
Method: The zebrafish colony was maintained as described and embryos were raised at 28.5°C. The Tg(BRE:mRFP) transgenic line (also called BRE-mRFP) has been described previously and expresses mRFP in response to BMP signaling. […] Inhibitor stocks were diluted in DMSO and then further diluted in fish water to give the required inhibitor concentrations. To minimize the amount of inhibitors used, experiments were performed in 24-well plates with approximately 20 embryos per well in a volume of 1 mL. The chemical treatment was applied by immersing 8- to 16-cell stage Tg(BRE:mRFP) embryos (dorsalization experiment) or 12 hours old […]) embryos (ISV experiment) in the fish water supplemented with DMSO or the chemical inhibitors. For the ISV experiment, embryos were manually dechorionated after bud stage before treatment. Embryos were scored and photographed at 26 or 48 hours.

[5] = test system: BMP4 response (BRE-luciferase) in C2C12 cells; test: BRE-luciferase reporter assay; assay type: cell-based
Method: C2C12 cells were co-transfected using lipofectamine 2000 with BRE-luciferase and Renilla Luciferase pRLTK (Promega) following the manufacturer’s instructions. 16 hours post transfection cells were starved in DMEM containing 1% FCS for 5 hours. Inhibitors were added to triplicate wells at the indicated concentrations for 30 minutes, followed by overnight stimulation with 10 ng/ml BMP4 (Peprotech). Luciferase activities were determined according to the Dual-Luciferase® Reporter Assay System (Promega) using Renilla for normalization of transfection efficiency.

[6] = test system: BMP4 induced Smad1/5/8 phosphorylation in C2C12 cells; test: BMP4 induced Smad1/5/8 phosphorylation, Western blot; assay type: cell-based; settings: for pIC50: Mus musculus
Method: as §3

[7] = molecular target: T1, TRKA (Homo sapiens, UniProt P04629); test: Nanosyn kinase profiling; assay type: biochemical; settings: read-out: Percentage inhibition; for inhibition at 0.1 µM: 0.1 µM inhibitor; for inhibition at 1 µM: 1 µM inhibitor
T1 construct: purchased Nanosyn (enzymatic panel); SGC in-house recombinant human kinases (DSF panel); Invitrogen (ALK1-6)
Method: as §1, §2

[8] = molecular target: T2, IKK-α (Homo sapiens, UniProt O15111); test: Nanosyn kinase profiling; assay type: biochemical; settings: read-out: Percentage inhibition; for inhibition at 0.1 µM: 0.1 µM inhibitor; for inhibition at 1 µM: 1 µM inhibitor
T2 construct: purchased Nanosyn (enzymatic panel); SGC in-house recombinant human kinases (DSF panel); Invitrogen (ALK1-6)
T2 sequence (O15111 1-745): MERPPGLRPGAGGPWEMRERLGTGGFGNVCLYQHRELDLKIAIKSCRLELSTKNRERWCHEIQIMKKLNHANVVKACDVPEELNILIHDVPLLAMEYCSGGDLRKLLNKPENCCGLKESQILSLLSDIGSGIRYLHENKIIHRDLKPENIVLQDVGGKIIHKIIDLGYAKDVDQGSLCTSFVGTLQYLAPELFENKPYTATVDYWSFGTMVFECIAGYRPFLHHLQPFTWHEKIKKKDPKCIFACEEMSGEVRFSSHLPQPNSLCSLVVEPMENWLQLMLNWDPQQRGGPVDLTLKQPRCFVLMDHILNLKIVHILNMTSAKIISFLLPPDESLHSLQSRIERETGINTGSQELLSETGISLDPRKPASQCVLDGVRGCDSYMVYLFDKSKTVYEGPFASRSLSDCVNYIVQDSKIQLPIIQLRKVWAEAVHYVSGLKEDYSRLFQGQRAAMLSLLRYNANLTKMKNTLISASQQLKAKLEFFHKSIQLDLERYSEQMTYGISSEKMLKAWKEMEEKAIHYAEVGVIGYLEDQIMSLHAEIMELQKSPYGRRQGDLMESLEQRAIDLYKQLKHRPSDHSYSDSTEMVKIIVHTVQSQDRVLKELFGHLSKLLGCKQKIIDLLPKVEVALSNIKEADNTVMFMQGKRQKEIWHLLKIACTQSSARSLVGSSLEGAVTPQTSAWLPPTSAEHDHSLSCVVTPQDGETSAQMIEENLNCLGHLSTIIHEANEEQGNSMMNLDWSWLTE
Method: as §1, §2

[9] = test system: KDR; set-up: method as in PMID 20020776; settings: read-out: reported KDR IC50; cited from earlier work

T1 sequence (P04629 33-796): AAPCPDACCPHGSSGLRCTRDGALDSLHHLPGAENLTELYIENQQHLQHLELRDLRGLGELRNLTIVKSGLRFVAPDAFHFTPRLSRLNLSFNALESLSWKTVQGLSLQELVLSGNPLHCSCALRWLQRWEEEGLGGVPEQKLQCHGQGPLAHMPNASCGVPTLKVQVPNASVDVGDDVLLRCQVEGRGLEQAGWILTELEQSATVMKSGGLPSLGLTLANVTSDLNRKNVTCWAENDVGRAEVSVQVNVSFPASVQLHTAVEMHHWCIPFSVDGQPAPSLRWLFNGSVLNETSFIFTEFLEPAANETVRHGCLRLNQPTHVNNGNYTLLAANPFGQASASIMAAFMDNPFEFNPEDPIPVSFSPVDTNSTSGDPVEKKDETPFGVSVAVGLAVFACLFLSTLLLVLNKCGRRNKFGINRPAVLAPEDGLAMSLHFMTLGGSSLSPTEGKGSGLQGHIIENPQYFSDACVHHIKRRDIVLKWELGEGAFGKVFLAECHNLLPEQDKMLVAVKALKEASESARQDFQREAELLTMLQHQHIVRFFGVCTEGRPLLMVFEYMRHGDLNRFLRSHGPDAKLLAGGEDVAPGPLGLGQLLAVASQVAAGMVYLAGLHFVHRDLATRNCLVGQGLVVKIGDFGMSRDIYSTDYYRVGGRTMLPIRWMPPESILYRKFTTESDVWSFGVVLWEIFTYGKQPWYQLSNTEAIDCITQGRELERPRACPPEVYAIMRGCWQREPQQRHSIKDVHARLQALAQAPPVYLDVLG

SMILES	Percentage inhibition ([1]; 0.1 µM inhibitor) [%]	Percentage inhibition ([1]; 1 µM inhibitor) [%]	further kinases with >50% inhibition (beyond ABL and ARG) [2] [kinases]	inhibition of Smad2 phosphorylation [3]	inhibition of Activin A-induced P-Smad2 [3]	ISV formation phenotype ([4]; 10 µM)	ISV formation phenotype ([4]; 10–20 µM)	activity weaker than control compound LDN-193189 ([5]; C2C12 cells, BMP4, BRE-luciferase) [fold]	activity weaker than control compound LDN-193189 ([6]; C2C12 cells, BMP4, P-Smad1/5/8) [fold]	pIC50 ([6]; C2C12 cells, BMP4 stimulation, read-out: apparent IC50, Smad1/5/8 phosphorylation)	inhibition at 0.1 µM [7] [%]	inhibition at 1 µM [7] [%]	inhibition at 0.1 µM [8] [%]	inhibition at 1 µM [8] [%]	pIC50 [9]	Percentage inhibition ([1]; 0.1 µM inhibitor, 0.1 µM)	number of kinases with >50% inhibition [2] [kinases]	pIC50 ([5]; Mus musculus, C2C12, read-out: IC50, BRE-luciferase)	pIC50 ([6]; C2C12, read-out: apparent IC50, Smad1/5/8 phosphorylation)
COc1cc(-c2cc(-c3cccc(O)c3)cnc2N)cc(OC)c1OC [K02288, 3-[6-amino-5-(3,4,5-trimethoxy-phenyl)-pyridin-3-yl]-phenol]	9.4	57	6	near complete inhibition	weakly inhibited	no phenotype	no ISV defects	10	10	7.00	1.5	2.8	7.4	2.7					
c1cc(-c2cnn3cc(-c4ccc(OCCN5CCCCC5)cc4)cnc23)ccn1 [Dorsomorphin]						defects in intersomitic vessel (ISV) formation									7.60				
c1ccc2c(-c3cnn4cc(-c5ccc(N6CCNCC6)cc5)cnc34)ccnc2c1 [LDN-193189]		96		near complete inhibition	weakly inhibited	defects in intersomitic vessel (ISV) formation; also recorded: weak ISV defects					1.9	7.2	3	-2	6.67	63% and > 50%	21	8.00	8.00

From publication PMC3639963, “A New Class of Small Molecule Inhibitor of BMP Signaling” (PLoS ONE, 2013)
